According to patent US10532028B2, “Method to improve characteristics of spray dried powders and granulated materials, and the products thereby produced” (ISP INVESTMENTS LLC, priority 2005, dated 2020):

Legend:
[1] = CoQ10 USP dissolution, apparatus II (paddles); assay type: physicochemical; conditions: 37° C.
From the text: • 1. Coenzyme Q10 (CoQ10) was spray dried with polyvinylpyrrolidone (PVP) (Plasdone® K-29/32, International Specialty Products) in the ratio 1 CoQ10:3 PVP at 20% total solids. Two spray dried powders were produced, one from 100% dichloromethane (DCM) and the other from a blend of 80% DCM, 20% acetone. CoQ10 is soluble in both DCM and acetone, while PVP is only soluble in DCM. All other spray drying conditions remained the same. • 2. Sample analysis included USP dissolution using apparatus II (paddles). All samples were hand-filled into size 1 gelatin capsules. The bath temperature was 37° C. with a paddle speed of 50 rpm for the first 60 minutes and then 200 rpm for an additional 15 minutes. The dissolution media contained 2% Cremophor® EL (BASF Corp.), and 4% Acconon® MC8 (Abitec Corp.). […] It is surprising that the time for 50% CoQ10 dissolution (t50%) was shortened from 18 minutes (100% solvent) to 5 minutes (solvent/non-solvent blend). Similarly, the time for 80% CoQ10 dissolution (t80%) was shortened from 68 minutes to 12 minutes by the switch from 100% solvent to the solvent/non-solvent blend. • 4. […] Other advantages of the solvent/non-solvent blend approach include lower residual solvent content and higher density.

[2] = Crystallinity by (modulated) differential scanning calorimetry; assay type: physicochemical; conditions: MDSC, heat-only conditions, aluminum hermetic pans
Method: • 1. 1 part Carbamazepine (CBZ) was spray dried with 1 part polyvinylpyrrolidone (PVP) (Plasdone® K-29/32, International Specialty Products) and 1 part polyvinylpyrrolidone-co-vinyl acetate (PVP-VA) (Plasdone® S-630, International Specialty Products) from solvent and solvent/non-solvent solutions at 10% solids by weight. Solvent was dichloromethane (20%), non-solvent was acetone (80%). • 2. Spray drying was conducted on an SD-Micro® (Niro, Inc.) spray dryer under identical experimental conditions other than solvent composition. • 3. Results: • a. […] CBZ from solvent/non-solvent solution • 1) Particle morphology: spherical as shown in FIG. 2B. • 2) Particle size (from optical microscopy): 3 μm-5 μm • 3) Residual solvent immediately after spray drying: 2.0% • 4) Bulk density: 0.057 g/mL • 5) Density after 1250 taps: 0.18 g/mL • 6) Spherical morphology was unexpected, based on previous examples, expected particles to be dimpled, raisin-like, or folded.
• The two solutions were spray dried under identical conditions on an SD-Micro® (Niro, Inc.) spray dryer to yield spray dried powders. • 2. The two compositions were analyzed for EFV crystallinity using differential scanning calorimetry. Both powders were amorphous, as indicated by the absence of an EFV melt endotherm (FIG. 5). • 3. […]

[3] = Table 1, 75 minutes test, 2% Cremophor EL + 4% Acconon MC8

max. CoQ10 release ([1]; 50 rpm for 60 min then 200 rpm for 15 min, 2% Cremophor EL + 4% Acconon MC8, size 1 gelatin capsules): 4.3%
T80% (time for 80% CoQ10 dissolution) [1, 3]: not attained
t50% (time for 50% CoQ10 dissolution) [1, 3]: not attained
crystallinity [2]: 100%
SMILES: COC1=C(OC)C(=O)C(C/C=C(\C)CC/C=C(\C)CC/C=C(\C)CC/C=C(\C)CC/C=C(\C)CC/C=C(\C)CC/C=C(\C)CC/C=C(\C)CC/C=C(\C)CCC=C(C)C)=C(C)C1=O [CoQ10 (as received), Coenzyme Q10]
